Results as given in patent US20250296971A1, “GASTRIC INHIBITORY PEPTIDE RECEPTOR LIGANDS” (priority 2021, published 2025).
Read-outs that look alike come from different tables or passages of the source. *1 amine or outer side, *2 acyl side, *3 side chain or, on linkers, in order; H or OH if unused. Where a SMILES comes first, the peptide text is derived from it. Bridges are numbered along the chain shown (N, C = ends). [ ]: non-standard residue; d: D form. The star is where a group is joined. X5 = NC(=O)[C@H](CCCCNC(=O)CN1CCN(CC(=O)O)CCN(CC(=O)O)CCN(CC(=O)O)CC1)NC(=O)CCC(=O)NCCCOCCOCCOCCCN*; X25 = NC(=O)C(CCCCNC(=O)CN1CCN(CC(=O)O)CCN(CC(=O)O)CCN(CC(=O)O)CC1)NC(=O)CCC(=O)NCCCOCCOCCOCCCN*; X3 = O=C(O)CN1CCN(CC(=O)O)CCN(CC(=O)NCCCOCCOCCOCCCN*)CCN(CC(=O)O)CC1; NH(1-deoxy-D-glucityl) = OC[C@@H](O)[C@@H](O)[C@H](O)[C@@H](O)CN*; DOTA = O=C(O)CN1CCN(CC(=O)O)CCN(CC(=O)*)CCN(CC(=O)O)CC1; Trp(5-Cl) = N[C@@H](Cc1c[nH]c2ccc(Cl)cc12)C(=O)O; Phe(3,4-Cl2) = N[C@@H](Cc1ccc(Cl)c(Cl)c1)C(=O)O; Pyridine(2,6-diCH2) = c1cc(C[*:1])nc(C[*:2])c1; Trp(5-F) = N[C@@H](Cc1c[nH]c2ccc(F)cc12)C(=O)O; Oic = O=C(O)[C@@H]1C[C@@H]2CCCC[C@@H]2N1; Pro(4R-NH2) = N[C@H]1CN[C@H](C(=O)O)C1; 1Nal = N[C@@H](Cc1cccc2ccccc12)C(=O)O; 2Nal = N[C@@H](Cc1ccc2ccccc2c1)C(=O)O; mXylylene = c1cc(C[*:1])cc(C[*:2])c1; Glutaryl = O=C(CCCC(=O)[*:2])[*:1]; X7 = c1cc(CSCCN[*:2])cc(C[*:1])c1; Hyp = O=C(O)[C@@H]1C[C@@H](O)CN1; X1 = O=C(CN1CCC(N[*:1])CC1)[*:2]; Suc = O=C(CCC(=O)[*:2])[*:1]; Api = NC1(C(=O)O)CCNCC1; Thp = NC1(C(=O)O)CCOCC1; Aib = CC(C)(N)C(=O)O

Target: T1, GIPR (CHO-K1-hGIPR cells) (Homo sapiens, UniProt P48546)
T1 construct: host or cells: CHO-K1
T1 sequence (P48546 22-466): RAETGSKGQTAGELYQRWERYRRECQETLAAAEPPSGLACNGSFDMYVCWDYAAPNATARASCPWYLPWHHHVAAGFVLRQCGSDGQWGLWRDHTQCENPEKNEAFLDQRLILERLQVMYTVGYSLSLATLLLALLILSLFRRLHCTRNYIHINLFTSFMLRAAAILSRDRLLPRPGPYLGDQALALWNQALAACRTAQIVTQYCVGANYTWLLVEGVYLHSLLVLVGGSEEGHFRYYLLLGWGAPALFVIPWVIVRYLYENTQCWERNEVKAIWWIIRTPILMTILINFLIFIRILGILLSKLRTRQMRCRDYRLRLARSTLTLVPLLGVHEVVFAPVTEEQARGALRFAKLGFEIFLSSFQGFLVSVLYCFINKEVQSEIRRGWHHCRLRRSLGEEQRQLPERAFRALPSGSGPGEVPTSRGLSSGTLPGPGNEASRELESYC
Test: FACS binding assay
Conditions: read-out: pIC50 Category (converted)
How it was run: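 Median fluorescence in the APC channel, measured on washed CHO-K1 cells overexpressing human GIPR, was fitted by four-parameter logistic regression against peptide concentration to yield EC50 or IC50 values. Secondary labelling used APC-streptavidin (1 μg/mL, 30 min, ice).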

[1] = competition with 20 nM GIP-057, 4° C., 1 hour
[2] = competition with 20 nM GIP-057, 4° C. for 1 hour

| Compound | IC50 [1] | IC50 [2] |
| --- | --- | --- |
| CC[C@H](C)[C@@H]1NC(=O)[C@H](CC(C)C)NC(=O)C(C)(C)NC(=O)[C@@H](NC(=O)[C@@H](CC(C)C)NC(=O)[C@H](CCC(=O)O)NC(=O)[C@@H]2CCCN2C(=O)[C@H](Cc2cccc3ccccc23)NC(=O)[C@H](Cc2c[nH]c3ccc(F)cc23)NC(=O)[C@H](CC(=O)O)NC(C)=O)CSCc2cccc(c2)CSC[C@@H](C(=O)NCCCOCCOCCOCCCNC(=O)CCC(=O)N[C@@H](CCCCNC(=O)CN2CCN(CC(=O)O)CCN(CC(=O)O)CCN(CC(=O)O)CC2)C(N)=O)NC1=O [GIP-083, Ac-Asp-5Fw-1Ni-Pro-Glu-leu-[Cys(3MeBn)-Aib-Leu-Ile-Cys]-Ttds-Lys(DOTA)-NH2] (Ac-D[Trp(5-F)][1Nal]PE[dL]C[Aib]LIC-X5; linker 7-11 via mXylylene) | < 10 nM | – |
| CC[C@H](C)[C@@H]1NC(=O)[C@H](CC(C)C)NC(=O)[C@@H](C)NC(=O)[C@@H](NC(=O)[C@@H](CC(C)C)NC(=O)[C@H](CCC(=O)O)NC(=O)[C@@H]2CCCN2C(=O)[C@H](Cc2c[nH]c3ccccc23)NC(=O)[C@H](Cc2c[nH]c3ccccc23)NC(=O)CCC(=O)O)CSCc2cccc(c2)CSC[C@@H](C(=O)NCCCOCCOCCOCCCNC(=O)CCC(=O)N[C@@H](CCCCNC(=O)CN2CCN(CC(=O)O)CCN(CC(=O)O)CCN(CC(=O)O)CC2)C(N)=O)NC1=O [GIP-288, HO-Succinyl-Trp-Trp-Pro-Glu-leu-[Cys(3MeBn)-ala-Leu-Ile-Cys]-Ttds-Lys(DOTA)-NH2] (Suc-WWPE[dL]C[dA]LIC-X5; linker 6-10 via mXylylene) | – | > 1000 nM |
| CC[C@H](C)[C@@H]1NC(=O)[C@H](CC(C)C)NC(=O)C2(CCN(C(=O)CN3CCN(CC(=O)O)CCN(CC(=O)O)CCN(CC(=O)O)CC3)CC2)NC(=O)[C@@H](NC(=O)[C@H](CC(C)C)NC(=O)[C@H](CCC(=O)O)NC(=O)[C@@H]2C[C@@H](N)CN2C(=O)[C@H](Cc2c[nH]c3ccc(Cl)cc23)NC(=O)[C@H](Cc2c[nH]c3ccccc23)NC(=O)[C@H](CC(=O)O)NC(=O)CCCC(=O)NC[C@H](O)[C@@H](O)[C@H](O)[C@H](O)CO)CSCc2cccc(n2)CSC[C@@H](C(=O)NC2CCN(CC(=O)N[C@H](CCC(=O)NC[C@H](O)[C@@H](O)[C@H](O)[C@H](O)CO)C(N)=O)CC2)NC1=O [GIP-035, AGLU-Glutar-Asp-Trp-5Clw-Tap-Glu-Leu-[Cys(2Lut)-Apc(DOTA)-Leu-Ile-Cys]-APAc-glu(AGLU)-NH2] ({NH(1-deoxy-D-glucityl)-Glutaryl}-DW[Trp(5-Cl)][Pro(4R-NH2)]ELC[Api](DOTA)LIC[X1][dE](NH(1-deoxy-D-glucityl))-NH2; linker 7-11 via Pyridine(2,6-diCH2)) | < 10 nM | – |

Results, then the compound that gave them:

| IC50 [1] | IC50 [2] | Compound |
| --- | --- | --- |
| < 10 nM | – | CC[C@H](C)[C@@H]1NC(=O)[C@H](CC(C)C)NC(=O)C2(CCOCC2)NC(=O)[C@@H](NC(=O)[C@@H](CC(C)C)NC(=O)[C@H](CCC(=O)O)NC(=O)[C@@H]2C[C@@H](O)CN2C(=O)[C@H](Cc2c[nH]c3ccc(Cl)cc23)NC(=O)[C@H](Cc2c[nH]c3ccccc23)NC(=O)[C@H](CCC(N)=O)NC(C)=O)CSCc2cccc(n2)CSC[C@@H](C(N)=O)NC1=O [GIP-204, Ac-Gln-Trp-5Clw-Hyp-Glu-leu-[Cys(2Lut)-Thp-Leu-Ile-Cys]-NH2] (Ac-QW[Trp(5-Cl)][Hyp]E[dL]C[Thp]LIC-NH2; linker 7-11 via Pyridine(2,6-diCH2)) |
| – | > 1000 nM | CC[C@H](C)[C@@H]1NC(=O)[C@H](CC(C)C)NC(=O)C(C)(C)NC(=O)[C@@H](NC(=O)[C@H](CC(C)C)NC(=O)[C@H](CCC(=O)O)NC(=O)[C@@H]2CCCN2C(=O)[C@H](Cc2ccc3ccccc3c2)NC(=O)[C@H](Cc2c[nH]c3ccccc23)NC(=O)[C@H](CC(=O)O)NC(C)=O)CSCc2cccc(c2)CSC[C@@H](C(=O)NCCCOCCOCCOCCCNC(=O)CCC(=O)NC(CCCCNC(=O)CN2CCN(CC(=O)O)CCN(CC(=O)O)CCN(CC(=O)O)CC2)C(N)=O)NC1=O (stereo partly drawn) [GIP-294, Ac-Asp-Trp-2Ni-Pro-Glu-Leu-[Cys(3MeBn)-Aib-Leu-Ile-Cys]-Ttds-Lys(DOTA)-NH2] (Ac-DW[2Nal]PELC[Aib]LIC-X25; linker 7-11 via mXylylene) |
| < 10 nM | – | CC[C@H](C)[C@@H]1NC(=O)[C@H](CC(C)C)NC(=O)C2(CCNCC2)NC(=O)[C@@H](NC(=O)[C@@H](CC(C)C)NC(=O)[C@H](CCC(=O)O)NC(=O)[C@@H]2CCCN2C(=O)[C@H](Cc2c[nH]c3ccc(Cl)cc23)NC(=O)[C@H](Cc2c[nH]c3ccccc23)NC(=O)[C@H](CC(=O)O)NC(=O)CCC(=O)NCCCOCCOCCOCCCNC(=O)CN2CCN(CC(=O)O)CCN(CC(=O)O)CCN(CC(=O)O)CC2)CSCc2cccc(c2)CSCCNC1=O [GIP-088, DOTA-Ttds-Asp-Trp-5Clw-Pro-Glu-leu-[Cys(3MeBn)-Apc-Leu-Ile-AET]] ({X3-Suc}-DW[Trp(5-Cl)]PE[dL]C[Api]LI; linker 7-C via X7) |
| – | > 1000 nM | CC[C@H](C)[C@@H]1NC(=O)[C@H](CC(C)C)NC(=O)C2(CCOCC2)NC(=O)[C@@H](NC(=O)[C@@H](CC(C)C)NC(=O)[C@H](CCC(=O)O)NC(=O)[C@@H]2C[C@@H]3CCCC[C@@H]3N2C(=O)[C@H](Cc2ccc(Cl)c(Cl)c2)NC(=O)[C@H](Cc2ccc(Cl)c(Cl)c2)NC(=O)[C@H](CC(=O)O)NC(C)=O)CSCc2cccc(n2)CSC[C@@H](C(N)=O)NC1=O [GIP-356, Ac-Asp-Eaa-Eaa-Oic-Glu-leu-[Cys(2Lut)-Thp-Leu-Ile-Cys]-NH2] (Ac-D[Phe(3,4-Cl2)][Phe(3,4-Cl2)][Oic]E[dL]C[Thp]LIC-NH2; linker 7-11 via Pyridine(2,6-diCH2)) |
